# US12685733B2, “Indole molecules and use thereof in the inhibition of DNA polymerases” (BioVentures, LLC, priority 2019, dated 2026)
# Target: T1, hpol κ (Homo sapiens, UniProt Q9UBT6)
# T1 sequence (Q9UBT6 19-526): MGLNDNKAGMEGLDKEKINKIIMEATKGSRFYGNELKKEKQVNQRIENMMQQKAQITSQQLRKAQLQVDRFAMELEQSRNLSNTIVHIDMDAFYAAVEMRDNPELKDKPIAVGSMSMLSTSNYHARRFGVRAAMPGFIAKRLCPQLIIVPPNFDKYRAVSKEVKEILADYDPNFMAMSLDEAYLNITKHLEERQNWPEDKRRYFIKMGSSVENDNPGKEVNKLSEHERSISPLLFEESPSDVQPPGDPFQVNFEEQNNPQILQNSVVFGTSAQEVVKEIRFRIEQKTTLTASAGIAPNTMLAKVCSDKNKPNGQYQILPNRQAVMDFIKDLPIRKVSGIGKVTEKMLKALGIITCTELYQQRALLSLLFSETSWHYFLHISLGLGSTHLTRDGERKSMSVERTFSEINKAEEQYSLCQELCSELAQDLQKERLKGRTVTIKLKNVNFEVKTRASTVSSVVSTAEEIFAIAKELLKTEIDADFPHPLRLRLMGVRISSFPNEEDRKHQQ
# Assay: Gel-based primer extension assay
# Type: biochemical
# Parameters: hpol κ (residues 19-526); made in house
# Details: 10 μM; 1 nM hpol κ
structure (smiles),measurement,value
"Cl.[H]/N=C(\N)NN=Cc1cn(C(=O)c2cccc3ccccc23)c2ccc(Cl)cc12 [IAG-10, (E)-2-((1-(1-naphthoyl)-5-chloro-1H-indol-3-y1)methylene)hydrazine-1-carboximidamide hydrochloride]",polymerase activity relative to DMSO control,only hpol κ was inhibited
